Reference: patent US20240246942A1, “KINASE INHIBITORS FOR THE TREATMENT OF NEURODEGENERATIVE DISEASES” (priority 2020, published 2024)

What was measured:
Experiment in all cases: biochemical
[1] = target: T1, panel of 374 wild-type kinases (Homo sapiens, UniProt Q12851); settings: read-out: % Enzyme Activity (relative to DMSO controls), GCK/MAP4K2
T1 construct: purchased Reaction Biology Corporation
T1 sequence (Q12851 1-820): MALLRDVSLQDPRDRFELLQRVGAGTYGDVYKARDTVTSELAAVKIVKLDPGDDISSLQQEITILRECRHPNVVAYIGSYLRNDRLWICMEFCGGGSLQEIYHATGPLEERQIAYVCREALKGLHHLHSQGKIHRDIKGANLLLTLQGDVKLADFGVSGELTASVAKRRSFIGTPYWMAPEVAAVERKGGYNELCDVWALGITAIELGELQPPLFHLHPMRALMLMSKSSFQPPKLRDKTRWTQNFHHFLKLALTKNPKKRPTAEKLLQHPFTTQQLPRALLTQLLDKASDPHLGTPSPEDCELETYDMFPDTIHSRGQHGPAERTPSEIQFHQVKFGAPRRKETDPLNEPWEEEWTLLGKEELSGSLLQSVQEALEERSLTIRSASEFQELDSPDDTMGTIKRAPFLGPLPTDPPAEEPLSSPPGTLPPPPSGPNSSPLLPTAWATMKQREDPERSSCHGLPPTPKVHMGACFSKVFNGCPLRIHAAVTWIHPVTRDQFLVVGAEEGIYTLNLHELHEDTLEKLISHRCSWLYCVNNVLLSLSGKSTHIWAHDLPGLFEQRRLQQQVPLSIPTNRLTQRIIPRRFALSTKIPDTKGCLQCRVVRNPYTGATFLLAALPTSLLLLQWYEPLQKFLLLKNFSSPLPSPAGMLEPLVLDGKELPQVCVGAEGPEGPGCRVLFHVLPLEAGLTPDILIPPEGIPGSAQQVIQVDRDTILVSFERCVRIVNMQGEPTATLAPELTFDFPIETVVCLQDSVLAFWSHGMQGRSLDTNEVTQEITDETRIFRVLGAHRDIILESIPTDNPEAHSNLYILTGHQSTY

[2] = target: T2, panel of 374 wild-type kinases (Homo sapiens, UniProt Q15139); settings: read-out: % Enzyme Activity (relative to DMSO controls), kinase PKCmu/PRKD1
T2 construct: purchased Reaction Biology Corporation
T2 sequence (Q15139 1-912): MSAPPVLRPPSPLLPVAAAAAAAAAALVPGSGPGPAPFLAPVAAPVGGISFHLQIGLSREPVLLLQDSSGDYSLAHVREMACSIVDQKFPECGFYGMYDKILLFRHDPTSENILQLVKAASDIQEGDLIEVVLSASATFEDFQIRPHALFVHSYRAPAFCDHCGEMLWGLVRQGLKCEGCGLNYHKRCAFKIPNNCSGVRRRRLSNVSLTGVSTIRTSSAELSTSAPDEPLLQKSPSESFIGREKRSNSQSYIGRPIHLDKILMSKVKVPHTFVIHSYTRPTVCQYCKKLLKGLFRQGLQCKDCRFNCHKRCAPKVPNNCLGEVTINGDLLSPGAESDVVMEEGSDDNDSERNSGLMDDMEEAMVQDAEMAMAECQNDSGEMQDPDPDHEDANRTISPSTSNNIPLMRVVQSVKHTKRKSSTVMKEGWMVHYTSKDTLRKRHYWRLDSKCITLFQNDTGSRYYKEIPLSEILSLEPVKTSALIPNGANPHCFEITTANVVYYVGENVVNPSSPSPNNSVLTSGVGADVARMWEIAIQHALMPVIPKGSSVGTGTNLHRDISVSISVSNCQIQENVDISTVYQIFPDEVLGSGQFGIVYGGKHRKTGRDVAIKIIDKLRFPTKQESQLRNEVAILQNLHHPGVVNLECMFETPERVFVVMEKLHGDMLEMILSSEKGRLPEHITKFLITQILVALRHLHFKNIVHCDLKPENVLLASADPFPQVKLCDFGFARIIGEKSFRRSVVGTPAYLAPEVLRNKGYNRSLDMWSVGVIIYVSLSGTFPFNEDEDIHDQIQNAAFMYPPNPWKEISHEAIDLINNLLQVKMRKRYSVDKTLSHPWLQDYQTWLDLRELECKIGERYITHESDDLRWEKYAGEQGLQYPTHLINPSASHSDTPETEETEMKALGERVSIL

[3] = target: T3, panel of 374 wild-type kinases (Homo sapiens, UniProt Q9UIK4); settings: read-out: % Enzyme Activity (relative to DMSO controls), DAPK2
T3 construct: purchased Reaction Biology Corporation

[4] = target: T4, panel of 374 wild-type kinases (Homo sapiens, UniProt P17612); settings: read-out: % Enzyme Activity (relative to DMSO controls), kinase PKA
T4 construct: purchased Reaction Biology Corporation

T3 sequence (Q9UIK4 whole entry): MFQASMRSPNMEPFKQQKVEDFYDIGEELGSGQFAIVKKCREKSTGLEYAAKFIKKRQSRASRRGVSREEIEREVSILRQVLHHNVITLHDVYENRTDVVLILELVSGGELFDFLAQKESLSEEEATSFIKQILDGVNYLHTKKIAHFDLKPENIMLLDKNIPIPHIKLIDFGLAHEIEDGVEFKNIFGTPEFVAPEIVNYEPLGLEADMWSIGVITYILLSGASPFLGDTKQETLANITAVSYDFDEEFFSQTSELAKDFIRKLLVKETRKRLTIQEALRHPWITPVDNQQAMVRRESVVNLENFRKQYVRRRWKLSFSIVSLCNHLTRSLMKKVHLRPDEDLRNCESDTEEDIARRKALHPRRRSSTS

O=C(Nc1cnn(-c2csc(C(=O)NC3COC3)c2)c1)Nc1ccccc1Cl [Compound 17, 4-(4-(3-(2-chlorophenyl)ureido)-1H-pyrazol-1-yl)-N-(oxetan-3-yl)thiophene-2-carboxamide]
remaining activity at 5 µM [1]: 105% | remaining activity at 5 µM [2]: 114% | remaining activity at 5 µM [3]: 103% | remaining activity at 5 µM [4]: 99.8%

O=C(Nc1cnn(-c2csc(C(=O)NC3COC3)c2)c1)Nc1c(F)cccc1Cl [Compound 25, 4-(4-(3-(2-chloro-6-fluorophenyl)ureido)-1H-pyrazol-1-yl)-N-(oxetan-3-yl)thiophene-2-carboxamide]
remaining activity at 5 µM [1]: 95.3% | remaining activity at 5 µM [2]: 90.7% | remaining activity at 5 µM [3]: 102% | remaining activity at 5 µM [4]: 108%

Cc1sc(C(=O)NC2COC2)cc1-n1cc(NC(=O)Nc2c(F)cccc2Cl)cn1 [Compound 27, 4-(4-(3-(2-chloro-6-fluorophenyl)ureido)-1H-pyrazol-1-yl)-5-methyl-N-(oxetan-3-yl)thiophene-2-carboxamide]
remaining activity at 10 µM ([1]; 10 uM): 90.2% | remaining activity at 10 µM ([2]; 10 uM): 93.3% | remaining activity at 10 µM ([3]; 10 uM): 99.5% | remaining activity at 10 µM ([4]; 10 uM): 94.5%
